Assay results taken from ChEMBL document CHEMBL1909046, “DrugMatrix in vitro pharmacology data”.

How the values were obtained:
[1] = biological target: 5-hydroxytryptamine receptor 4 (Cavia porcellus, UniProt O70528); assay type: cell membranes, Dunkin-Hartley, Striatum, Membrane; also: in other assays of this panel Not Active means under 50% inhibition at 10 µM
Carbonic anhydrase 2 = Carbonic anhydrase 2 (Homo sapiens, UniProt P00918); assay: DRUGMATRIX: Carbonic Anhydrase II enzyme inhibition (substrate: 4-Nitrophenyl acetate (4-NPA)); assay type: tissue-based, Erythrocyte; details: erythrocyte; Not Active = under 50% inhibition at 10 µM
[2] = DRUGMATRIX: Glutamate, NMDA, Phencyclidine radioligand binding (ligand: [3H] TCP); assay type: cell membranes, Rattus norvegicus, Wistar, Cerebral cortex, Membrane; details: Not Active = under 50% inhibition at 10 µM
Glycine receptor = Glycine receptor (Rattus norvegicus, UniProt P22771+P24524+P07727+P20781); assay type: cell membranes, Wistar, Spinal cord, Membrane; also: in other assays of this panel Not Active means under 50% inhibition at 10 µM
[3] = biological target: T1, Muscarinic acetylcholine receptor M5 (Homo sapiens, UniProt P08912); assay type: cell membranes, Membrane; details: cho-k1; also: in other assays of this panel Not Active means under 50% inhibition at 10 µM
T1 sequence (P08912 whole entry): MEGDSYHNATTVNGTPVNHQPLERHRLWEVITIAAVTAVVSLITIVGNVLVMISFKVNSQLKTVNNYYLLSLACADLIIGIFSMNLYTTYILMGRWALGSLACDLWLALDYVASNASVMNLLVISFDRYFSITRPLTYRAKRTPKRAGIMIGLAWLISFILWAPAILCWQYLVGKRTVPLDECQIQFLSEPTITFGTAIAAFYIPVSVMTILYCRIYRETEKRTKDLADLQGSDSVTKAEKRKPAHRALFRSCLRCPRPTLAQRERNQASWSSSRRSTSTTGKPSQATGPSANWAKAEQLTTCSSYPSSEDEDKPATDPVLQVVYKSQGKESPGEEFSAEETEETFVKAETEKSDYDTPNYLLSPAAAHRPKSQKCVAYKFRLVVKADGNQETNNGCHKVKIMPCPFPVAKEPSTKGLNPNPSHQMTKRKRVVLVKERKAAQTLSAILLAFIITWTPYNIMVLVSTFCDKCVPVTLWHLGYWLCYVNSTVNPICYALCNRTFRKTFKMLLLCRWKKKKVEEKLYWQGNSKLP

[4] = DRUGMATRIX: Phosphodiesterase PDE4 enzyme inhibition (substrate: [3H]cAMP + cAMP); details: u-937; Not Active = under 50% inhibition at 10 µM
Cytochrome P450 2E1 = Cytochrome P450 2E1 (Homo sapiens, UniProt P05181); details: bti-tn-5b1-4; also: in other assays of this panel Not Active means under 50% inhibition at 10 µM
Estrogen receptor beta = Estrogen receptor beta (Homo sapiens, UniProt Q92731); details: sf9; also: in other assays of this panel Not Active means under 50% inhibition at 10 µM
Sequence of Estrogen receptor beta (Q92731 whole entry): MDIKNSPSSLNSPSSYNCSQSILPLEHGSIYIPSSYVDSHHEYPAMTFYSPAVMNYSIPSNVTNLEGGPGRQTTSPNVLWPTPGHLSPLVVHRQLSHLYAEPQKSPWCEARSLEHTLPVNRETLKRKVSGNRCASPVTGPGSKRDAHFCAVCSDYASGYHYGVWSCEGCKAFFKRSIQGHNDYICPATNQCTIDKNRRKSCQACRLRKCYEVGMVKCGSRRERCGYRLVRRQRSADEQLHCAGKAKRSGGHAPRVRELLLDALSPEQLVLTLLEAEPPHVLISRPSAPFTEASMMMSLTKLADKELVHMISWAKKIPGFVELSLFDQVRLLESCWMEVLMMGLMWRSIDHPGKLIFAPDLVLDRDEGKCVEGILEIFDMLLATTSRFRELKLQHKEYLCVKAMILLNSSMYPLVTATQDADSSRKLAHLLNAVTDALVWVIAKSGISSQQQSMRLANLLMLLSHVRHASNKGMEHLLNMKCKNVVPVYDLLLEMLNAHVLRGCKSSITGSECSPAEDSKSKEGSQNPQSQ

Sequence of Cytochrome P450 2E1 (P05181 whole entry): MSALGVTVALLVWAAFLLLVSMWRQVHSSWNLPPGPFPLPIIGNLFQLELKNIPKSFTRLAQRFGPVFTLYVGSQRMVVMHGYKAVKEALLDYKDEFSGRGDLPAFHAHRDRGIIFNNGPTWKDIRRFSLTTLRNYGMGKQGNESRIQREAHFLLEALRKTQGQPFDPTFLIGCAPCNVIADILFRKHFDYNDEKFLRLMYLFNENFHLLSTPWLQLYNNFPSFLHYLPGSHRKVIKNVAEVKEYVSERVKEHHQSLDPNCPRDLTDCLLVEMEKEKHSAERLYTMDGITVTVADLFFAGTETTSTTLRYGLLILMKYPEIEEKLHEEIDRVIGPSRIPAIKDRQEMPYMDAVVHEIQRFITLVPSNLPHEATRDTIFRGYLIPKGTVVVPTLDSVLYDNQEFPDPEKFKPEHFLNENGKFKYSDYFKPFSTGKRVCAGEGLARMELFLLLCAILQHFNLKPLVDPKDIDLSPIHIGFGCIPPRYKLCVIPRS
Sequence of 5-hydroxytryptamine receptor 4 (O70528 whole entry): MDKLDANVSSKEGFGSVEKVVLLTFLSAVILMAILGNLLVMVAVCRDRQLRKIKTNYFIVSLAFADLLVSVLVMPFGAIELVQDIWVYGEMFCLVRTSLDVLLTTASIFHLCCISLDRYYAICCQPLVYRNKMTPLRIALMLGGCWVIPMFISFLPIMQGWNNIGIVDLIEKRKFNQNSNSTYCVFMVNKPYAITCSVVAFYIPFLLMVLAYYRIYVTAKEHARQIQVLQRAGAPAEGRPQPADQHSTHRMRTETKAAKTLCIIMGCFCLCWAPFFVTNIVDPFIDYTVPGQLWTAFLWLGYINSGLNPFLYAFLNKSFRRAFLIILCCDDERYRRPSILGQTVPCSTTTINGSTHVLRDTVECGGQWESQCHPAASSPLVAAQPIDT

CCOC(=O)[C@H](CCc1ccccc1)N[C@@H](C)C(=O)N1CCC[C@H]1C(=O)O
Not Active: IC50 [1] | IC50 (Carbonic anhydrase 2) | IC50 [2] | Ki [2] | IC50 (Glycine receptor) | IC50 [3] | IC50 [4] | Ki [4] | IC50 (Cytochrome P450 2E1) | Ki (Cytochrome P450 2E1)

POLYVINYL ALCOHOL
Not Active: IC50 [1] | Ki [1] | IC50 (Carbonic anhydrase 2) | Ki (Carbonic anhydrase 2) | IC50 [2] | Ki [2] | IC50 (Glycine receptor) | Ki (Glycine receptor) | IC50 [3] | Ki [3] | IC50 [4] | Ki [4] | IC50 (Cytochrome P450 2E1) | Ki (Cytochrome P450 2E1) | IC50 (Estrogen receptor beta) | Ki (Estrogen receptor beta)

CCC[C@@H]1C[C@@H](C(=O)N[C@@H]([C@H]2O[C@H](SC)[C@H](O)[C@@H](O)[C@H]2O)[C@H](C)Cl)N(C)C1 [CLINDAMYCIN]
Not Active: IC50 [1] | IC50 (Carbonic anhydrase 2) | IC50 [2] | Ki [2] | IC50 (Glycine receptor) | IC50 [3] | IC50 [4] | Ki [4] | IC50 (Estrogen receptor beta)

CN(Cc1cnc2nc(N)nc(N)c2n1)c1ccc(C(=O)N[C@@H](CCC(=O)O)C(=O)O)cc1 [METHOTREXATE]
Not Active: IC50 [1] | IC50 (Carbonic anhydrase 2) | IC50 [2] | Ki [2] | IC50 (Glycine receptor) | IC50 [3] | IC50 [4] | Ki [4] | IC50 (Cytochrome P450 2E1) | Ki (Cytochrome P450 2E1) | IC50 (Estrogen receptor beta)

CO[C@@]1(NC(=O)CSCC#N)C(=O)N2C(C(=O)O)=C(CSc3nnnn3C)CS[C@@H]21 [CEFMETAZOLE]
Not Active: IC50 [1] | IC50 (Carbonic anhydrase 2) | IC50 [2] | Ki [2] | IC50 (Glycine receptor) | IC50 [3] | IC50 [4] | Ki [4] | IC50 (Cytochrome P450 2E1) | Ki (Cytochrome P450 2E1) | IC50 (Estrogen receptor beta)

C[C@@H]1CC[C@H]2[C@@H](C)C(=O)O[C@@H]3O[C@@]4(C)CC[C@@H]1[C@]32OO4 [ARTEMISININ]
Not Active: IC50 [1] | IC50 (Carbonic anhydrase 2) | IC50 [2] | Ki [2] | IC50 (Glycine receptor) | IC50 [3] | IC50 [4] | Ki [4] | IC50 (Estrogen receptor beta)

COc1ccccc1OCC(O)CO (stereo unspecified) [GUAIFENESIN]
Not Active: IC50 [1] | IC50 (Carbonic anhydrase 2) | IC50 [2] | Ki [2] | IC50 (Glycine receptor) | IC50 [3] | IC50 [4] | Ki [4] | IC50 (Estrogen receptor beta)

C/C=C\c1ccc(O)c(OC)c1 [ISOEUGENOL]
Not Active: IC50 [1] | IC50 (Carbonic anhydrase 2) | IC50 [2] | Ki [2] | IC50 (Glycine receptor) | IC50 [3] | IC50 [4] | Ki [4]

[N-]=[N+]=CC(=O)OC[C@H](N)C(=O)O [AZASERINE]
Not Active: IC50 [1] | IC50 (Carbonic anhydrase 2) | IC50 [2] | Ki [2] | IC50 (Glycine receptor) | IC50 [3] | IC50 [4] | Ki [4] | IC50 (Cytochrome P450 2E1) | Ki (Cytochrome P450 2E1)

Cc1cn[nH]c1 [FOMEPIZOLE]
Not Active: IC50 [1] | IC50 (Carbonic anhydrase 2) | IC50 [2] | Ki [2] | IC50 (Glycine receptor) | IC50 [3] | IC50 [4] | Ki [4] | IC50 (Estrogen receptor beta)

CN1C(=O)CN=C(c2ccccc2)c2cc(Cl)ccc21 [DIAZEPAM]
Not Active: IC50 [1] | IC50 (Carbonic anhydrase 2) | IC50 [2] | Ki [2] | IC50 (Glycine receptor) | IC50 [3] | IC50 [4] | Ki [4] | IC50 (Cytochrome P450 2E1) | Ki (Cytochrome P450 2E1)

N[C@@H](Cc1ccc(F)cc1)C(=O)O
Not Active: IC50 [1] | IC50 (Carbonic anhydrase 2) | IC50 [2] | Ki [2] | IC50 (Glycine receptor) | IC50 [3] | IC50 [4] | Ki [4] | IC50 (Estrogen receptor beta)
